This is an account of results in ChEMBL document CHEMBL3272144, “Application of the Free-Wilson technique to structurally related series of homologues. Quantitative structure-activity relationship studies of narcotic analgetics” (1977).

The species named for this assay is Mus musculus. In words: Analgesic activity in mouse by hot-plate method. The format is functional. (In hot-plate and tail-flick tests a longer latency is read as antinociception.)
`CC[C@H]1C2Cc3ccc(O)cc3[C@@]1(C)CCN2C` (stereo in doubt; 21): the “log(1/C)” value is listed as 2.62.

As for `CCC[C@@]12CCN(C)C(Cc3ccc(O)cc31)[C@@H]2C` (stereo in doubt; 25), the “log(1/C)” value worked out at 2.57.

In the case of `CC[C@H]1C2Cc3ccc(O)cc3[C@@]1(CC)CCN2C` (stereo in doubt; 30), the “log(1/C)” value stood at 2.35.

With `CN1CC[C@@]2(C)CC1Cc1ccc(O)cc12` (stereo in doubt; 31), the “log(1/C)” value is reported as 2.16.

As to `CC[C@H]1C2Cc3ccc(OC)cc3[C@@]1(CC)CCN2C` (stereo in doubt; 42), the “log(1/C)” value is 1.81.

Turning to `CN1CC[C@@]2(c3ccccc3)CC1Cc1ccccc12` (stereo in doubt; 44), the “log(1/C)” value was 1.77.

Turning to `CN1CC[C@H]2CC1Cc1ccc(O)cc12` (stereo in doubt; 46), the “log(1/C)” value is on record as 1.72.

For `C=CC#CCN1CC[C@]2(CC)c3cc(O)ccc3CC1[C@@H]2CC` (stereo in doubt; 72), the “log(1/C)” value is recorded as 3.7.

On to `C[C@H]1C2Cc3ccc(O)cc3[C@@]1(C)CCN2CCc1ccccc1` (stereo in doubt; 87), for which the “log(1/C)” value is recorded as 2.05.

Turning to `C[C@@H]1C2Cc3ccc(O)cc3[C@@]1(c1ccccc1)CCN2C` (stereo in doubt; 88), the “log(1/C)” value amounted to 1.99.

As to `CN1CC[C@@]2(c3ccccc3)CC1Cc1ccccc12` (stereo in doubt; 89), the “log(1/C)” value was determined as 1.87.

Regarding `C=CC#CCN1CC[C@]2(CC)c3cc(O)ccc3CC1[C@@H]2CC` (stereo in doubt; 90), the “log(1/C)” value came to 1.79.

On to `CC[C@H]1C2Cc3ccc(OC)cc3[C@@]1(CC)CCN2C` (stereo in doubt; 91), for which the “log(1/C)” value turned out to be 1.62.

In the case of `C[C@@H]1C2Cc3ccc(O)cc3[C@@]1(C)CCN2C` (stereo in doubt; 92), the “log(1/C)” value is recorded as 1.6.

With `CC[C@H]1C2Cc3ccc(O)cc3[C@@]1(CC)CCN2C` (stereo in doubt; 93), the “log(1/C)” value turned out to be 1.51.

As for `CCC[C@@]12CCN(C)C(Cc3ccc(O)cc31)[C@@H]2C` (stereo in doubt; 94), the “log(1/C)” value is recorded as 1.38.

Turning to `CC[C@@H]1C2Cc3ccc(O)cc3[C@@]1(CC)CCN2C` (stereo in doubt; 95), the “log(1/C)” value is recorded as 1.31.

For `CN1CC[C@H]2CC1Cc1ccc(O)cc12` (stereo in doubt; 96), the “log(1/C)” value is recorded as 1.22.

With `CC[C@H]1C2Cc3ccc(O)cc3[C@@]1(C)CCN2C` (stereo in doubt; 97), the “log(1/C)” value was found to be 1.2.

For `CN1CC[C@@]2(C)CC1Cc1ccc(O)cc12` (stereo in doubt; 98), the “log(1/C)” value is on record as 1.04.

As for `CC[C@@]12CCN(C)C(Cc3ccc(O)cc31)C2` (stereo in doubt; 99), the “log(1/C)” value worked out at 1.03.
